Results as given in patent publication US5684162A, “Leukotriene B4 antagonists” (G.D. Searle & Co., priority 1996, dated 1997).

What was measured:
LTB4 Receptor = target: T1, LTB4 Receptor (Homo sapiens, UniProt Q15722); test: LTB4 Receptor Binding Assay ([3H]LTB4, human neutrophils); settings: 0.6×10^-9 M (3H) LTB4, human neutrophils, 0° C., 45 minutes, pH 7.4
T1 construct: Neutrophils were purified from venous blood of normal human donors; endogenous in cells; host or cells: human peripheral blood neutrophils (>95% pure, normal donors)
T1 sequence (Q15722 whole entry): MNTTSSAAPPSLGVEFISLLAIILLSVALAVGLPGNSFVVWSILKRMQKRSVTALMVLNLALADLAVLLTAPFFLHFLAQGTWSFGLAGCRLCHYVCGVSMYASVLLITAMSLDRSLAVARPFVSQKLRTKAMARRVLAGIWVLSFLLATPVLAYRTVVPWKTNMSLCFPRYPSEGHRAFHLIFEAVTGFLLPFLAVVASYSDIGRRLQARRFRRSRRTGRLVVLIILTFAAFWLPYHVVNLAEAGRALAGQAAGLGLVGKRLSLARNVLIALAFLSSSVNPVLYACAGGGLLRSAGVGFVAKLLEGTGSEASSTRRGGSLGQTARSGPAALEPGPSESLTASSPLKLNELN
Experimental: Preparation of Human Neutrophils
Neutrophils were purified from venous blood of normal human donors using standard techniques of dextran sedimentation, centrifugation on Ficoll-paque® (Pharmacia) or Histopaque® sterile solution (Sigma) and hypotonic lysis of erythrocytes (Boyum, A., Isolation of Leukocytes From Human Blood: Further Observations. Scand. J. Lab. Clin. Invest., 21 (Suppl. 97): 31, 1968).
LTB4 Receptor Binding Assay
Neutrophils (4-6×10^6) in 1 ml Hanks' balanced salt solution (HBSS) containing 10 mM HEPES buffer , pH 7.4 and […] nordihydroguaiaretic acid were incubated with 0.6×10^-9 M (^3 H) LTB4 in the presence or absence of test compounds. The incubation was carried out at 0° C. for 45 minutes and terminated by adding 5 ml of ice-cold HBSS followed by rapid filtration of the incubation mixture under vacuum through GF/C glass fiber filters. The filters were further washed with 10 ml HBSS and radioactivity was determined. Specific binding was defined as the difference between total binding and nonspecific binding which was not displaced by 10^-7 M unlabeled LTB4. All data refer to specific binding.

Human neutrophils = test: Modified Boyden Chamber Chemotaxis (LTB4-induced, human neutrophils); format: cell-based; settings: Neutrophil; 3×10^-8 M LTB4, human neutrophils, 40-90 minute incubation at 37° C., pH 7.3
Experimental: Modified Boyden Chamber Chemotaxis
Human neutrophils were isolated from citrated peripheral blood using standard techniques of dextran sedimentation, followed by centrifugation on Histopaque® sterile solution (Sigma) or Ficoll-paque® (Pharmacia) and hypotonic lysis of erythrocytes. A final cell suspension of 3.4×10^6 neutrophils/ml of HEPES-buffered Hanks' balanced salt solution (HBSS, pH 7.3) was added to the upper well (0.8 ml) of a modified Boyden chamber (blind well). The lower well (0.2 ml), separated by a polycarbonate membrane (Nucleopore Corp.), contained HBSS or 3×10^-8 M LTB4 in the presence or absence of test compound. Following a 40-90 minute incubation at 37° C. in 5% CO2 -95% air, cells from the lower well were lysed and nuclei counted in a Model S-Plus-IV Coulter Counter. The number of neutrophils migrating into the lower chamber in the absence of chemoattractant was subtracted from the number of cells migrating in the presence of a chemoattractant. Inhibition of chemotaxis by test compounds was expressed as percent inhibition relative to uninhibited control.

CCCc1c(OCCCOc2ccc(C(=O)NC)c(OC)c2CC2CC2)ccc2c1OC(CCC(=O)NS(=O)(=O)c1ccccc1)CC2 (stereo not drawn) [Example 5]
IC50 (LTB4 Receptor): 2.1 nM
IC50 (Human neutrophils): 25 nM

CCCc1c(OCCCOc2ccc(C(=O)NC)c(OC)c2CC2CC2)ccc2c1OC(CCC(=O)NS(=O)(=O)c1ccc(C)cc1)CC2 (stereo not drawn) [Example 6]
IC50 (LTB4 Receptor): 3.7 nM
IC50 (Human neutrophils): 30 nM

CCCc1c(OCCCOc2ccc(C(=O)NC)c(OC)c2CC2CC2)ccc2c1OC(CCC(=O)NS(=O)(=O)c1ccccc1C)CC2 (stereo not drawn) [Example 7]
IC50 (LTB4 Receptor): 3 nM
IC50 (Human neutrophils): 23 nM
